In ChEMBL document CHEMBL1201862, “PubChem BioAssay data set” (2004):
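A five-concentration, 48-hour dose response in 96-well plates underlies each endpoint, interpolated linearly between surrounding concentrations. GI50 is the concentration that inhibits growth by half.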 Active and inactive are the calls of the source. Cut-off read from the data, not from the text of the source: active = GI50 up to about 1.1 µM and inactive = higher. Where a SMILES comes first, the peptide text is derived from it. [ ]: non-standard residue; d: D form. The star is where a group is joined. ξ: configuration not given here. ξNMe2Val = CC(C)C(C(=O)*)N(C)C; NMeV = CN[CH](C(=O)O)C(C)C; NHBn = c1ccc(CN*)cc1

What was measured:
Experiment in all cases: DTP human tumour cell line panel, 48 h
IGROV-1 = test system: IGROV-1
SNB-75 = test system: SNB-75
OVCAR-4 = test system: OVCAR-4
UO-31 = test system: UO-31
OVCAR-3 = test system: OVCAR-3
NCI/ADR-RES = test system: NCI/ADR-RES
A498 = test system: A498
TK-10 = test system: TK-10
UACC-62 = test system: UACC-62
KM12 = test system: KM12
CCRF-CEM = test system: CCRF-CEM
MDA-MB-435 = test system: MDA-MB-435
A549 = test system: A549
SK-MEL-28 = test system: SK-MEL-28
MDA-N = test system: MDA-N
SK-MEL-5 = test system: SK-MEL-5
MCF7 = test system: MCF7
HOP-92 = test system: HOP-92
PC-3 = test system: PC-3

| Compound | GI50 (IGROV-1) | GI50 (SNB-75) | GI50 (OVCAR-4) | GI50 (UO-31) | GI50 (OVCAR-3) | GI50 (NCI/ADR-RES) | GI50 (A498) | GI50 (TK-10) | GI50 (UACC-62) | GI50 (KM12) | GI50 (CCRF-CEM) | GI50 (MDA-MB-435) | GI50 (A549) | GI50 (SK-MEL-28) | GI50 (MDA-N) | GI50 (SK-MEL-5) | GI50 (MCF7) | GI50 (HOP-92) | GI50 (PC-3) |
| --- | --- | --- | --- | --- | --- | --- | --- | --- | --- | --- | --- | --- | --- | --- | --- | --- | --- | --- | --- |
| CCOC(=O)Cc1nc2nn(Cc3ccccc3)cc2c(=O)[nH]1 | > 100 µM (inactive) | > 100 µM (inactive) | > 100 µM (inactive) | > 100 µM (inactive) | > 100 µM (inactive) | > 100 µM (inactive) | 19.3 µM (inactive) | > 100 µM (inactive) | > 100 µM (inactive) | > 100 µM (inactive) | > 100 µM (inactive) | > 100 µM (inactive) | > 100 µM (inactive) | > 100 µM (inactive) | > 100 µM (inactive) | > 100 µM (inactive) | > 100 µM (inactive) | – | – |
| CO/C(=N\N=C\c1ccccc1F)c1ccncc1 | – | – | > 10 µM (inactive) | > 10 µM (inactive) | > 10 µM (inactive) | > 10 µM (inactive) | – | > 10 µM (inactive) | – | > 10 µM (inactive) | > 10 µM (inactive) | > 10 µM (inactive) | > 10 µM (inactive) | – | > 10 µM (inactive) | – | > 10 µM (inactive) | > 10 µM (inactive) | > 10 µM (inactive) |
| Oc1ccc2c3c1OC1c4[nH]c5c(c4CC4(O)C(C2)N(CC2CC2)CC[C@]314)CC1(O)C2Cc3ccc(O)c4c3[C@@]1(CCN2CC1CC1)C5O4 (some centres not stated) | > 100 µM (inactive) | – | 29.8 µM (inactive) | > 100 µM (inactive) | 17.6 µM (inactive) | > 100 µM (inactive) | 17.5 µM (inactive) | 21.2 µM (inactive) | 20.4 µM (inactive) | 17.5 µM (inactive) | – | 19.9 µM (inactive) | 18.6 µM (inactive) | 20.1 µM (inactive) | 18.4 µM (inactive) | 44 µM (inactive) | 34.7 µM (inactive) | 23 µM (inactive) | 43.5 µM (inactive) |
| COc1ccc(N2C(=O)CSC2c2cc(OC)c(OC)c(OC)c2)cc1 (configuration not stated) | 33.7 µM (inactive) | – | 42.5 µM (inactive) | 11.8 µM (inactive) | 25.5 µM (inactive) | 22.2 µM (inactive) | 29 µM (inactive) | 43.2 µM (inactive) | 4.71 µM (inactive) | 15.1 µM (inactive) | 7.23 µM (inactive) | 10.9 µM (inactive) | 25.5 µM (inactive) | 33.4 µM (inactive) | 9.68 µM (inactive) | 20.9 µM (inactive) | 37.6 µM (inactive) | 54.6 µM (inactive) | 25.1 µM (inactive) |
| Nc1nc2c(C(=O)NCc3cccs3)nnn2c2cccc(Cl)c12 | > 100 µM (inactive) | – | > 100 µM (inactive) | 87.5 µM (inactive) | > 100 µM (inactive) | > 100 µM (inactive) | > 100 µM (inactive) | > 100 µM (inactive) | > 100 µM (inactive) | > 100 µM (inactive) | 22.3 µM (inactive) | > 100 µM (inactive) | > 100 µM (inactive) | 92.3 µM (inactive) | > 100 µM (inactive) | 92.3 µM (inactive) | 53.8 µM (inactive) | 79.3 µM (inactive) | 54.5 µM (inactive) |
| C=CCN1C[C@@H](C)N([C@@H](c2ccc(C(=O)N(CC)CC)cc2)c2cccc(OC)c2)C[C@@H]1C | > 100 µM (inactive) | – | > 100 µM (inactive) | > 100 µM (inactive) | > 100 µM (inactive) | > 100 µM (inactive) | > 100 µM (inactive) | – | > 100 µM (inactive) | > 100 µM (inactive) | 3.7 µM (inactive) | > 100 µM (inactive) | > 100 µM (inactive) | > 100 µM (inactive) | > 100 µM (inactive) | > 100 µM (inactive) | 49.8 µM (inactive) | > 100 µM (inactive) | > 100 µM (inactive) |
| O=C(CCN1CCOCC1)Nc1ccc(F)cc1F | > 100 µM (inactive) | – | > 100 µM (inactive) | > 100 µM (inactive) | > 100 µM (inactive) | > 100 µM (inactive) | > 100 µM (inactive) | > 100 µM (inactive) | > 100 µM (inactive) | > 100 µM (inactive) | – | > 100 µM (inactive) | > 100 µM (inactive) | > 100 µM (inactive) | > 100 µM (inactive) | > 100 µM (inactive) | > 100 µM (inactive) | > 100 µM (inactive) | > 100 µM (inactive) |
| CC(C)=CCC/C(C)=C/CO [GERANIOL] | > 100 µM (inactive) | – | > 100 µM (inactive) | > 100 µM (inactive) | > 100 µM (inactive) | > 100 µM (inactive) | > 100 µM (inactive) | > 100 µM (inactive) | > 100 µM (inactive) | > 100 µM (inactive) | > 100 µM (inactive) | > 100 µM (inactive) | > 100 µM (inactive) | > 100 µM (inactive) | > 100 µM (inactive) | > 100 µM (inactive) | > 100 µM (inactive) | – | > 100 µM (inactive) |
| O=S(=O)(O)c1ccc2c(/N=N/c3cccc4ccccc34)c(O)ccc2c1 | > 100 µM (inactive) | > 100 µM (inactive) | > 100 µM (inactive) | > 100 µM (inactive) | > 100 µM (inactive) | > 100 µM (inactive) | > 100 µM (inactive) | > 100 µM (inactive) | > 100 µM (inactive) | > 100 µM (inactive) | > 100 µM (inactive) | > 100 µM (inactive) | > 100 µM (inactive) | > 100 µM (inactive) | > 100 µM (inactive) | > 100 µM (inactive) | – | > 100 µM (inactive) | > 100 µM (inactive) |
| COC1CC(OC(=O)c2ccccc2)C(OC(=O)c2ccccc2)C(C)O1 (configuration not stated) | > 100 µM (inactive) | – | – | > 100 µM (inactive) | > 100 µM (inactive) | > 100 µM (inactive) | > 100 µM (inactive) | > 100 µM (inactive) | > 100 µM (inactive) | > 100 µM (inactive) | > 100 µM (inactive) | > 100 µM (inactive) | > 100 µM (inactive) | > 100 µM (inactive) | > 100 µM (inactive) | > 100 µM (inactive) | > 100 µM (inactive) | 19.3 µM (inactive) | > 100 µM (inactive) |
| CC(=O)Oc1cc(S(=O)(=O)Nc2n[nH]c(Nc3ccc(C)cc3)n2)c(S)cc1Cl | > 100 µM (inactive) | – | > 100 µM (inactive) | > 100 µM (inactive) | > 100 µM (inactive) | > 100 µM (inactive) | > 100 µM (inactive) | > 100 µM (inactive) | > 100 µM (inactive) | > 100 µM (inactive) | 94.8 µM (inactive) | > 100 µM (inactive) | > 100 µM (inactive) | > 100 µM (inactive) | > 100 µM (inactive) | > 100 µM (inactive) | – | > 100 µM (inactive) | > 100 µM (inactive) |
| COC(=O)[C@@H]1CN(C(=O)CCc2ccccc2)C(=O)N1 | > 100 µM (inactive) | – | > 100 µM (inactive) | 50.2 µM (inactive) | > 100 µM (inactive) | > 100 µM (inactive) | > 100 µM (inactive) | > 100 µM (inactive) | – | > 100 µM (inactive) | > 100 µM (inactive) | > 100 µM (inactive) | > 100 µM (inactive) | > 100 µM (inactive) | > 100 µM (inactive) | > 100 µM (inactive) | – | > 100 µM (inactive) | > 100 µM (inactive) |
| Clc1cccc(Cl)c1C1SCc2nc3cc4ccccc4cc3n21 (configuration not stated) | > 100 µM (inactive) | > 100 µM (inactive) | > 100 µM (inactive) | > 100 µM (inactive) | > 100 µM (inactive) | > 100 µM (inactive) | – | > 100 µM (inactive) | > 100 µM (inactive) | > 100 µM (inactive) | > 100 µM (inactive) | > 100 µM (inactive) | > 100 µM (inactive) | > 100 µM (inactive) | > 100 µM (inactive) | > 100 µM (inactive) | > 100 µM (inactive) | – | > 100 µM (inactive) |
| O=P1(Oc2ccccc2)N=P(c2ccccc2)(c2ccccc2)C=C(c2ccc(Cl)cc2)N1 (configuration not stated) | 12.2 µM (inactive) | – | – | 12 µM (inactive) | 4.51 µM (inactive) | 10.9 µM (inactive) | – | 13.1 µM (inactive) | 13.9 µM (inactive) | 10.3 µM (inactive) | 9.38 µM (inactive) | 4.44 µM (inactive) | 3.97 µM (inactive) | – | 8.87 µM (inactive) | 2.25 µM (inactive) | 2.45 µM (inactive) | 9.18 µM (inactive) | 6.58 µM (inactive) |
| CNC(=S)N1CCN(C(C)=O)C1=S | 44.9 µM (inactive) | 26.5 µM (inactive) | 6.56 µM (inactive) | 50.7 µM (inactive) | 35.4 µM (inactive) | 69.3 µM (inactive) | 35.6 µM (inactive) | > 100 µM (inactive) | 43.7 µM (inactive) | 56.9 µM (inactive) | 46.5 µM (inactive) | 22.2 µM (inactive) | 38.8 µM (inactive) | 29.2 µM (inactive) | 51.8 µM (inactive) | 71.4 µM (inactive) | 42 µM (inactive) | 82.2 µM (inactive) | – |
| CC(C)C(NC(=O)C(C(C)C)N(C)C)C(=O)N(C)C(C(=O)N1CCCC1C(=O)N1CCCC1C(=O)NCc1ccccc1)C(C)C (configuration not stated) (ξNMe2Val-V[NMeV]PP-NHBn; configuration not given here) | < 0.0001 µM (active) | 0.172 µM (active) | 15.7 µM (inactive) | 0.0015 µM (active) | – | 0.00179 µM (active) | < 0.01 µM (active) | – | < 0.0001 µM (active) | < 0.0001 µM (active) | < 0.0001 µM (active) | < 0.0001 µM (active) | < 0.0001 µM (active) | – | < 0.0001 µM (active) | < 0.0001 µM (active) | – | < 0.0001 µM (active) | < 0.0001 µM (active) |
